Measurements reported in PubChem BioAssay AID493058 (The Scripps Research Institute Molecular Screening Center, 2011).
pEC50: −log10 of the molar value. The source made the active and inactive calls.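 The calls were made as follows: active = EC50 of 10 µM or lower; inactive = EC50 above 10 µM.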

Tested on: DHL10 Bax/Bak-deficient cells, cytotoxicity, MTS absorbance
Test: DHL10 Bax/Bak-null cell killing – MTS absorbance, EC50, counter-screen for MCL1-BIM inhibitor project, late-stage follow-up (AID 493058)

Compound: Cc1ccc(NC(=O)c2cc(-c3ccc(C)o3)nc3ccccc23)cc1
- EC50: > 25 µM (inactive)

Compound: O=C(Nc1ccccc1N1CCOCC1)c1cc(-c2ccco2)nc2ccccc12
- EC50: > 25 µM (inactive)

Compound: Cc1ccc(-c2cc(C(=O)NCCCn3ccnc3)c3cc(Br)ccc3n2)o1
- EC50: > 25 µM (inactive)

Compound: COc1ccc(-c2cc(=O)oc3cc(OCC(=O)N4CC4)ccc23)cc1
- EC50: > 25 µM (inactive)

Compound: Cc1ccc(-c2cc(C(=O)Nc3ccccc3C)c3ccccc3n2)o1
- EC50: > 25 µM (inactive)

Compound: CN(C)C(=O)c1ccc(NC(=O)c2cc(-c3ccco3)nc3ccccc23)cc1
- EC50: > 25 µM (inactive)

Compound: CN(C)C(CNC(=O)c1cc(-c2ccco2)nc2ccccc12)c1ccccc1 (stereo not drawn)
- EC50: > 25 µM (inactive)

Compound: Cc1ccc(-c2cc(C(=O)N3CCN(c4ccc(F)cc4)CC3)c3ccccc3n2)o1
- EC50: > 25 µM (inactive)

Compound: COCCN(C(=O)c1cc(-c2ccco2)nc2ccccc12)c1c(N)n(Cc2ccccc2)c(=O)[nH]c1=O
- EC50: > 25 µM (inactive)

Compound: Cc1ccc(-c2cc(C(=O)N3CC(C)OC(C)C3)c3ccccc3n2)o1 (stereo not drawn)
- EC50: > 25 µM (inactive)

Compound: Cc1ccc(-c2cc(C(=O)N3CCOCC3)c3ccccc3n2)o1
- EC50: > 25 µM (inactive)

Compound: Cc1ccc(-c2cc(C(=O)N3CCN(c4ncccn4)CC3)c3cc(Br)ccc3n2)o1
- EC50: > 25 µM (inactive)

Compound: COc1ccc(Cc2nnc(NC(=O)c3cc(-c4ccco4)nc4ccccc34)s2)cc1OC
- EC50: > 25 µM (inactive)

Compound: COc1ccc(NC(=O)c2cc(-c3ccco3)nc3ccccc23)cn1
- EC50: > 25 µM (inactive)

Compound: Cc1csc(NC(=O)c2cc(-c3ccco3)nc3ccccc23)n1
- EC50: > 25 µM (inactive)

Compound: COc1ccc(NC(=O)c2cc(-c3ccc(C)o3)nc3ccccc23)cc1OC
- EC50: > 25 µM (inactive)

Compound: CCCCn1c(N)c(N(CCC(C)C)C(=O)c2cc(-c3ccco3)nc3ccccc23)c(=O)[nH]c1=O
- EC50: > 25 µM (inactive)

Compound: COc1ccc(Cc2nnc(NC(=O)CCc3ccco3)s2)cc1OC
- EC50: > 25 µM (inactive)

Compound: CCOC(=O)C1CCCN(C(=O)c2cc(-c3ccco3)nc3ccccc23)C1 (stereo not drawn)
- EC50: > 25 µM (inactive)

Compound: O=C(Nc1cccc(S(=O)(=O)NC2=NCCCCC2)c1)c1cc(-c2ccco2)nc2ccccc12
- EC50: > 25 µM (inactive)

Compound: COc1ccc(NC(=O)c2cc(-c3ccc(C)o3)nc3ccccc23)c(OC)c1
- EC50: > 25 µM (inactive)

Compound: Cc1ccc2nc(NC(=O)c3cc(-c4ccco4)nc4ccccc34)sc2c1
- EC50: > 25 µM (inactive)

Compound: O=C(c1cc(-c2ccco2)nc2ccccc12)N1CCN(Cc2ccccc2)CC1
- EC50: > 25 µM (inactive)

Compound: COc1ccc(Cc2nnc(NC(=O)C(F)c3ccccc3)s2)cc1OC (stereo not drawn)
- EC50: > 25 µM (inactive)

Compound: Cc1cccc(NC(=O)c2cc(-c3ccco3)nc3ccc(Br)cc23)n1
- pEC50: 5.00

Compound: COc1ccc(CC(=O)Nc2nnc(Cc3ccc(OC)c(OC)c3)s2)cc1
- EC50: > 25 µM (inactive)

Compound: O=C(Nc1cccc(S(=O)(=O)NC2=NCCC2)c1)c1cc(-c2ccco2)nc2ccccc12
- EC50: > 25 µM (inactive)

Compound: COc1ccc(Cc2nnc(NC(=O)c3cc(-c4ccco4)nc4ccc(Br)cc34)s2)cc1OC
- EC50: 20 µM (inactive)

Compound: O=C(Cc1cccs1)Nc1nnc(Cc2ccccc2)s1
- EC50: > 25 µM (inactive)

Compound: Cc1cccc(NC(=O)c2cc(-c3ccc(C)o3)nc3ccccc23)n1
- EC50: > 25 µM (inactive)

Compound: CCCCn1c(N)c(N(CC(C)C)C(=O)c2cc(-c3ccco3)nc3ccccc23)c(=O)[nH]c1=O
- EC50: > 25 µM (inactive)

Compound: COc1ccc(Cc2nnc(NC(=O)Cc3ccc4ccccc4c3)s2)cc1OC
- EC50: > 25 µM (inactive)

Compound: COc1cccc(NC(=O)CN(C)C(=O)c2cc(-c3ccc(C)o3)nc3ccccc23)c1
- EC50: > 25 µM (inactive)

Compound: Cc1ccnc(NC(=O)c2cc(-c3ccc(C)o3)nc3ccccc23)c1
- EC50: > 25 µM (inactive)

Compound: Cc1ccc(-c2cc(C(=O)Nc3ccccn3)c3ccccc3n2)o1
- EC50: > 25 µM (inactive)

Compound: COc1ccc(Cc2nnc(NC(=O)Cc3sc(=S)[nH]c3C)s2)cc1OC
- EC50: > 25 µM (inactive)

Compound: COc1ccc(Cc2nnc(NC(=O)Cc3cc(F)cc(F)c3)s2)cc1OC
- EC50: > 25 µM (inactive)

Compound: Cc1ccc(-c2cc(C(=O)NCCN3CCOCC3)c3ccccc3n2)o1
- EC50: > 25 µM (inactive)

Compound: O=C(c1cc(-c2ccco2)nc2ccccc12)N1CCCC(C(F)(F)F)C1 (stereo not drawn)
- EC50: > 25 µM (inactive)

Compound: COCCCN(C(=O)c1cc(-c2ccco2)nc2ccccc12)c1c(N)n(Cc2ccccc2)c(=O)[nH]c1=O
- EC50: > 25 µM (inactive)

Compound: COc1ccc(NC(=O)CN(C)C(=O)c2cc(-c3ccc(C)o3)nc3ccccc23)cc1
- EC50: > 25 µM (inactive)

Compound: COc1ccc(Cc2nnc(NC(=O)Cc3ccc(-c4ccccc4)cc3)s2)cc1OC
- EC50: > 25 µM (inactive)

Compound: O=C(Nc1nccs1)c1cc(-c2ccco2)nc2ccccc12
- EC50: > 25 µM (inactive)

Compound: O=C(Nc1cccnc1)c1cc(-c2ccco2)nc2ccc(Br)cc12
- EC50: > 25 µM (inactive)

Compound: COc1cccc(CC(=O)Nc2nnc(Cc3ccc(OC)c(OC)c3)s2)c1
- EC50: > 25 µM (inactive)

Compound: O=C(NC1CC1)c1cc(-c2ccco2)nc2ccccc12
- EC50: > 25 µM (inactive)

Compound: COc1ccc(Cc2nnc(NC(=O)Cc3cccc(Br)c3)s2)cc1OC
- EC50: > 25 µM (inactive)

Compound: COc1ccc(NC(=O)c2cc(-c3ccc(C)o3)nc3ccccc23)cc1
- EC50: > 25 µM (inactive)

Compound: O=C(NC(=S)Nc1cccc(S(=O)(=O)NC2=NCCC2)c1)c1cc(-c2ccco2)nc2ccccc12
- EC50: > 25 µM (inactive)

Compound: COc1cccc(NC(=O)CN(C)C(=O)c2cc(-c3ccco3)nc3ccccc23)c1
- EC50: > 25 µM (inactive)

Compound: COc1ccc(Cc2nnc(NC(=O)Cc3cccnc3)s2)cc1OC
- EC50: > 25 µM (inactive)

Compound: Cc1ccc(-c2cc(C(=O)Nc3nccs3)c3ccccc3n2)o1
- EC50: > 25 µM (inactive)

Compound: COc1ccc(Cc2nnc(NC(=O)Cc3cccs3)s2)cc1
- EC50: > 25 µM (inactive)

Compound: O=C(Nc1nncs1)c1cc(-c2ccco2)nc2ccccc12
- EC50: > 25 µM (inactive)

Compound: COc1ccc(Cc2nnc(NC(=O)Cc3ccc4c(c3)OCO4)s2)cc1OC
- EC50: > 25 µM (inactive)

Compound: COc1ccc(Cc2nnc(CC(=O)Nc3cccs3)s2)cc1
- EC50: > 25 µM (inactive)

Compound: COc1ccc(Cc2nnc(NC(=O)c3cc(-c4ccc(C)o4)nc4ccccc34)s2)cc1OC
- EC50: 25 µM (inactive)

Compound: O=C(Nc1ccc(F)cc1F)c1cc(-c2ccco2)nc2ccccc12
- EC50: > 25 µM (inactive)

Compound: Cc1nnc(NC(=O)c2cc(-c3ccco3)nc3ccccc23)s1
- EC50: > 25 µM (inactive)

Compound: CCCCN(C(=O)c1cc(-c2ccco2)nc2ccccc12)c1c(N)n(CCC)c(=O)[nH]c1=O
- EC50: > 25 µM (inactive)

Compound: CN(CC(=O)Nc1ccc(F)cc1)C(=O)c1cc(-c2ccco2)nc2ccccc12
- EC50: > 25 µM (inactive)

Compound: CCCN(C(=O)c1cc(-c2ccco2)nc2ccccc12)c1c(N)n(Cc2ccccc2)c(=O)[nH]c1=O
- EC50: > 25 µM (inactive)

Compound: CCN(CC)C(=O)COc1ccc2c(-c3ccc(OC)cc3)cc(=O)oc2c1C
- EC50: > 25 µM (inactive)

Compound: O=C(Nc1nc2ccccc2s1)c1cc(-c2ccco2)nc2ccccc12
- EC50: > 25 µM (inactive)

Compound: O=C(Nc1ccccn1)c1cc(-c2ccco2)nc2ccc(Br)cc12
- pEC50: 5.00

Compound: CC(=O)N1CCN(C(=O)c2cc(-c3ccc(C)o3)nc3ccccc23)CC1
- EC50: > 25 µM (inactive)

Compound: COc1ccc(CCNC(=O)c2cc(-c3ccco3)nc3ccccc23)cc1
- EC50: > 25 µM (inactive)

Compound: COc1ccc(Cc2nnc(NC(=O)Cc3ccc(C)cc3)s2)cc1OC
- EC50: > 25 µM (inactive)

Compound: COc1ccc(Cc2nnc(NC(=O)Cc3c[nH]c4ccccc34)s2)cc1OC
- EC50: > 25 µM (inactive)

Compound: CCC(=O)Nc1nnc(Cc2ccccc2)s1
- EC50: > 25 µM (inactive)

Compound: Cc1ccc(-c2cc(C(=O)N3CCN(c4ccccc4O)CC3)c3ccccc3n2)o1
- EC50: > 25 µM (inactive)

Compound: CCCCn1c(N)c(N(CCOC)C(=O)c2cc(-c3ccco3)nc3ccccc23)c(=O)[nH]c1=O
- EC50: > 25 µM (inactive)

Compound: COc1ccc(Cc2nnc(NC(=O)Cc3ccsc3)s2)cc1OC
- EC50: > 25 µM (inactive)

Compound: CCc1nnc(NC(=O)c2cc(-c3ccc(C)o3)nc3ccccc23)s1
- EC50: > 25 µM (inactive)

Compound: COc1ccc(Cc2nnc(NC(=O)Cc3cccs3)s2)cc1OC
- EC50: > 25 µM (inactive)

Compound: COc1ccc(Cc2nnc(NC(=O)Cc3csc4ccccc34)s2)cc1OC
- EC50: > 25 µM (inactive)

Compound: Cc1ccc(-c2cc(C(=O)Nc3cccc(S(=O)(=O)N(C)C)c3)c3ccccc3n2)o1
- EC50: > 25 µM (inactive)

Compound: CCN1CCN(C(=O)c2cc(-c3ccco3)nc3ccccc23)CC1
- EC50: > 25 µM (inactive)

Compound: COc1cccc(NC(=O)c2cc(-c3ccc(C)o3)nc3ccccc23)c1
- EC50: > 25 µM (inactive)

Compound: CCCn1c(N)c(N(CCOC)C(=O)c2cc(-c3ccco3)nc3ccccc23)c(=O)[nH]c1=O
- EC50: > 25 µM (inactive)

Compound: Cc1ccc(-c2cc(C(=O)Nc3ccccc3C(N)=O)c3ccccc3n2)o1
- EC50: > 25 µM (inactive)

Compound: COc1ccc(Cc2nnc(NC(=O)Cc3ccc(Oc4ccccc4)cc3)s2)cc1OC
- EC50: > 25 µM (inactive)

Compound: CCCCCCNC(=O)c1cc(-c2ccco2)nc2ccccc12
- EC50: > 25 µM (inactive)

Compound: CC1CCCN(C(=O)c2cc(-c3ccco3)nc3ccccc23)C1 (stereo not drawn)
- EC50: > 25 µM (inactive)

Compound: COc1ccc(Cc2nnc(NC(=O)C3(c4ccccc4)CC3)s2)cc1OC
- EC50: > 25 µM (inactive)

Compound: CCOc1cc(N2CCOCC2)c(OCC)cc1NC(=O)c1cc(-c2ccco2)nc2ccccc12
- EC50: > 25 µM (inactive)

Compound: Cc1ccc(S(=O)(=O)N(C)C)cc1NC(=O)c1cc(-c2ccco2)nc2ccccc12
- EC50: > 25 µM (inactive)

Compound: O=C(NCC1CCCO1)c1cc(-c2ccco2)nc2ccccc12 (stereo not drawn)
- EC50: > 25 µM (inactive)

Compound: CCN(CC)CCNC(=O)c1cc(-c2ccco2)nc2ccccc12
- EC50: > 25 µM (inactive)

Compound: CCOC(=O)c1cc(-c2ccco2)nc2c1c(C)nn2-c1cccc(Cl)c1
- EC50: > 25 µM (inactive)

Compound: COC(=O)C1CCN(C(=O)c2cc(-c3ccco3)nc3ccccc23)CC1
- EC50: > 25 µM (inactive)

Compound: COc1ccc(Cc2nnc(NC(=O)Cc3ccc(N(C)C)cc3)s2)cc1OC
- EC50: > 25 µM (inactive)

Compound: CC(=O)c1cccc(NC(=O)c2cc(-c3ccco3)nc3ccccc23)c1
- EC50: > 25 µM (inactive)
